Among the data in PubChem BioAssay (NCI) are TGI values, retold here.

Some test systems named below: SF-539 CNS; A549 NSCLC; NCI-H522 lung; SR leukemia; MDA-MB-435; SW-620 colon; SNB-75 CNS; EKVX NSCLC; HL-60(TB) leukemia; K-562 leukemia; SNB-19 CNS.
Experiment in all cases: NCI tumour cell line growth inhibition, 48 h

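All cell lines were grown in 96-well plates and treated with compound for 48 hours. At the TGI there is no net growth.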 A value given as a limit tells only on which side of the number the result lay.

Regarding `Cc1nn(C(=O)c2ccccc2O)c2c1C(c1ccc([N+](=O)[O-])cc1)SC(N)=N2` (stereo not given), the TGI was over 2.67 µM in the experiment on SF-539 CNS; over 10 µM in the experiment on A549 NSCLC; over 10 µM in the experiment with NCI-H522 lung; over 10 µM with SR leukemia; over 10 µM in the experiment with MDA-MB-435; over 10 µM in the experiment on SW-620 colon. Besides, the TGI in the experiment on SNB-75 CNS was over 8.41 µM; with EKVX NSCLC, over 10 µM; with HL-60(TB) leukemia, over 10 µM; in the experiment on K-562 leukemia it was over 10 µM; in the experiment with SNB-19 CNS, over 10 µM.
Consider `CCCCCc1cc(CCCC)sc1-c1ccco1`, for which the TGI in the experiment with SF-539 CNS, in the experiment on A549 NSCLC, in the experiment on NCI-H522 lung, in the experiment on SR leukemia, with MDA-MB-435 and in the experiment with SW-620 colon was over 100 µM throughout. Moreover, the TGI in the experiment with SNB-75 CNS is over 100 µM; in the experiment on EKVX NSCLC it was over 100 µM; in the experiment on HL-60(TB) leukemia it was 58.8 µM; in the experiment on K-562 leukemia, over 100 µM; in the experiment with SNB-19 CNS it was over 100 µM.
Turning to `Brc1ccc2[nH]cc(-c3csc(-c4c[nH]c5ccc(Br)cc45)n3)c2c1`, the TGI in the experiment on SF-539 CNS is 2.9 µM; in the experiment on A549 NSCLC it was 7 µM; with NCI-H522 lung it was 3.39 µM; in the experiment on SR leukemia, 2.99 µM; in the experiment with MDA-MB-435, 5.79 µM; in the experiment with SW-620 colon it was 4.42 µM. Also, the TGI with SNB-75 CNS was 7.27 µM; with EKVX NSCLC it was 3.93 µM; in the experiment with HL-60(TB) leukemia it was 12.7 µM; in the experiment on K-562 leukemia, 3.43 µM; with SNB-19 CNS, 7.61 µM.
For `Brc1ccc(/C(N=N/C(=N\Sc2ccccc2)c2ccc(Br)cc2)=N/Sc2ccccc2)cc1`, the TGI with SF-539 CNS, with A549 NSCLC, in the experiment on NCI-H522 lung, in the experiment on SR leukemia, in the experiment with MDA-MB-435 and in the experiment on SW-620 colon was over 100 µM throughout. The TGI in the experiment on SNB-75 CNS, in the experiment on EKVX NSCLC, with HL-60(TB) leukemia, in the experiment with K-562 leukemia and with SNB-19 CNS was over 100 µM each time.
Consider `O=C(O)C12C3C4(C(=O)O)C1C1(C(=O)O)C2C3(C(=O)O)C41` (stereo not given), for which the TGI in the experiment with SF-539 CNS, with A549 NSCLC, with NCI-H522 lung, with SR leukemia, with MDA-MB-435 and with SW-620 colon was over 100 µM in each case. The TGI in the experiment with SNB-75 CNS, in the experiment with EKVX NSCLC, with HL-60(TB) leukemia, in the experiment on K-562 leukemia and in the experiment on SNB-19 CNS was over 100 µM in each case.
For the molecule `C=CCN(c1cc(OC)c2[nH]c(C(=O)O)c(C)c2c1[N+](=O)[O-])S(C)(=O)=O`, the TGI in the experiment on SF-539 CNS, with A549 NSCLC, in the experiment with NCI-H522 lung, in the experiment with SR leukemia, in the experiment on MDA-MB-435 and in the experiment with SW-620 colon was over 100 µM in each case. Further, the TGI in the experiment on SNB-75 CNS, in the experiment with EKVX NSCLC, in the experiment with HL-60(TB) leukemia, with K-562 leukemia and in the experiment with SNB-19 CNS was over 100 µM in each case.
As to `CCOC(=O)C(NC(=O)CC)(Nc1ccccc1F)C(F)(F)F` (stereo not given), the TGI with SF-539 CNS, with A549 NSCLC, with NCI-H522 lung, in the experiment with SR leukemia, in the experiment on MDA-MB-435 and in the experiment on SW-620 colon was over 100 µM throughout. In addition, the TGI in the experiment with SNB-75 CNS, in the experiment with EKVX NSCLC, in the experiment with HL-60(TB) leukemia, in the experiment on K-562 leukemia and with SNB-19 CNS was over 100 µM each time.
Consider `CCOP(=O)(CC1OC(CO)C(O)C1O)OCC` (stereo not given), for which the TGI with SF-539 CNS, with A549 NSCLC, with NCI-H522 lung, in the experiment on SR leukemia, in the experiment with MDA-MB-435 and in the experiment on SW-620 colon was over 100 µM in each case. Also, the TGI in the experiment with SNB-75 CNS, in the experiment on EKVX NSCLC, with HL-60(TB) leukemia, in the experiment on K-562 leukemia and in the experiment with SNB-19 CNS was over 100 µM each time.
Turning to `N#Cc1ccnc(C(=O)N2CCCC2C(=O)O)c1` (stereo not given), the TGI with SF-539 CNS, in the experiment on A549 NSCLC, with NCI-H522 lung, in the experiment with SR leukemia, with MDA-MB-435 and in the experiment on SW-620 colon was over 100 µM throughout. For the same molecule, the TGI in the experiment with SNB-75 CNS, in the experiment with EKVX NSCLC, with HL-60(TB) leukemia, in the experiment on K-562 leukemia and with SNB-19 CNS was over 100 µM throughout.
Take `O=c1[nH]nc(-c2ccc([N+](=O)[O-])cc2)[nH]1`: the TGI in the experiment with SF-539 CNS, in the experiment with A549 NSCLC, with NCI-H522 lung, with SR leukemia, in the experiment on MDA-MB-435 and in the experiment on SW-620 colon was over 100 µM in each case. For the same molecule, the TGI in the experiment with SNB-75 CNS, in the experiment on EKVX NSCLC, with HL-60(TB) leukemia, in the experiment on K-562 leukemia and in the experiment with SNB-19 CNS was over 100 µM throughout.
